From PMC7385359
Several values for one entry are separate records, joined by “and”; a condition that tells them apart may be missing. Identical values can stand only once.

Test: not told

Row | log partition 1-octanol / water | Compound
1 | 0.19 log10 | COC(=O)C1CC2(CC2)CN1C(C)=O (centres unmarked)
2 | 0.18 log10 and 0.03 log10 | COC(=O)C1CC2(CN1C(C)=O)CC2(F)F (centres unmarked)
